How the values were obtained:
PDE9 = PDE9 (Homo sapiens, UniProt O76083); test: PDE9 inhibition assay; assay type: biochemical
Method: Reactions are initiated by addition of the cyclic nucleotide substrate, and reactions are allowed to proceed for one hr at room temperature before being terminated through mixing with 15 uL 8 mg/mL yttrium silicate SPA beads (Amersham).
Following a 1 hour incubation the reactions were terminated by addition of 15 uL 8 mg/mL yttrium silicate SPA beads (Amersham). […] IC50 values were calculated by nonlinear regression using XLfit (IDBS).

[1] = test system: K562 erythroleukemic cells; test: cGMP in cultured K562 cells; assay type: cell-based; details: 16 hours
Method: Hydroxyurea was included as a comparator as it is currently the only FDA approved treatment for this disease (Charache et al., N Engl J Med., 332(20):1317-22. (1995)). One of the proposed mechanisms of action of HU in SCD is that it may generate NO and modulation of intracellular levels of the NO second messenger, cGMP, may represent an effective and cell-specific approach for amplifying intracellular NO-dependent signaling.
K562 cells were cultured at 37° C. in IMDM® to which the required concentrations of test items or dimethyl sulfoxide (DMSO; negative Control) had been added. Plated cells were maintained at 37° C. for 16 hours at the end of which the amount of cGMP was detected by enzyme immunoassay.

[2] = test system: Berkeley sickle cell transgenic mice; test: HbF positive and sickled red blood cells in Berkeley sickle cell transgenic mice; assay type: in vivo; details: 30 mg/kg/day Compound P3.1 or 100 mg/kg/day HU, gavage, 30 days
Method: This study assessed the effects of chronic dosing (30 day) of Compound P3.1 and HU on HbF and cell sickling in a mouse model of sickle cell disease. Berkeley sickle cell transgenic mice (Hbatm1PazHbbtm1Tow Tg(HBA-HBBs)41Paz/J) were divided into groups of 7 to 8 animals and were dosed once daily, by gavage, for 30 days with either vehicle (PEG:water), 30 mg/kg/day of Compound P3.1, or 100 mg/kg/day of HU. This mouse genotype mimics the genetic, hematologic and histopathologic features that are found in humans afflicted with sickle cell anemia, including irreversibly sickled RBCs, anemia and multi-organ pathology. Blood was collected from treated animals on Day 30 for limited routine hematology as well as derivation of the percent of sickled and HbF positive RBCs and total bilirubin. At termination, the spleen was removed and weighed.

C57Bl/6J mice = test: Locomotor activity and contextual fear conditioning in C57Bl/6J mice; assay type: in vivo; details: 10 or 30 mg/kg/day, gavage, 5 days
Method: The exposure of both compounds was also evaluated in the plasma, brain, and eye. […] During the treatment period all animals were assessed for contextual fear conditioning and a subset of 7 animals per group was evaluated for locomotor activity. On Day 5, plasma, brain, and eye tissue were collected 30 minutes after dosing from 3 animals per treated group to measure concentrations of test item.

[3] = Plasma protein binding, rat; assay type: in vitro ADME; details: read-out: mean plasma fraction bound (converted)

PDE9, sequence (O76083 whole entry): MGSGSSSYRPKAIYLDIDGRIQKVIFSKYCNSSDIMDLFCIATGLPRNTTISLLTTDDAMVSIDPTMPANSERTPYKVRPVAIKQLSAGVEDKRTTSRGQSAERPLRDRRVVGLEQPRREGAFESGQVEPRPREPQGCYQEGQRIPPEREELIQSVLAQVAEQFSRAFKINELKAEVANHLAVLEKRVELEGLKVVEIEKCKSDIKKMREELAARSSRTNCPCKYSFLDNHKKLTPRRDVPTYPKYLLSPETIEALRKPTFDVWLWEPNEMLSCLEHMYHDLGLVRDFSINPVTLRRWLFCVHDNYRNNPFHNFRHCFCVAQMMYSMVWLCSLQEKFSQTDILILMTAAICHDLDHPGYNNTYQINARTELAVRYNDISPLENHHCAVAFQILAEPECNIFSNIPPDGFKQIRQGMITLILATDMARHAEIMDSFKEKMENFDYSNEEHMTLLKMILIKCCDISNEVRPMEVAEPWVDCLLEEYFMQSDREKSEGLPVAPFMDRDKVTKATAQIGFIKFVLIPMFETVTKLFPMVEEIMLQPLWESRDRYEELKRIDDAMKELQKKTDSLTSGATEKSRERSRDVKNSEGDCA

C[C@@H]1CN(Cc2ncccn2)C[C@H]1c1cn2c(C3CCOCC3)ncc2c(=O)[nH]1 (single isomer, unassigned) [Compound P3.1]
IC50 (PDE9): 49 nM | cGMP concentration at 1 μM compared with 100 μM HU ([1]; 1 μM): approximately the same value elicited by 100 μM HU | cGMP level ([1]; 10 μM): 12.61 pg/mg | effect on cGMP levels [1]: dose-dependent and statistically significant increases in cGMP levels | RBC count, hemoglobin concentration or hematocrit [2]: not associated with any apparent alterations | neutrophil levels [2]: reduced neutrophil levels | spleen weight [2]: statistically significant decreases | total bilirubin [2]: statistically significant decreases | total leucocyte count [2]: statistically significant decreases | percentage of HbF positive RBCs ([2]; vs controls): increases in the percentage of HbF positive RBCs | percentage of sickled RBCs ([2]; vs controls): statistically significant decreases in the percentage of sickled RBCs | locomotor activity or memory (C57Bl/6J mice): no effect | fraction unbound [3]: 0.748

— patent US20190307754A1, “PDE9 INHIBITORS FOR TREATMENT OF PERIPHERAL DISEASES” (IMARA, INC., priority 2016, published 2019)
